No end group written: not given here.

Series [1] deals with T1, chymotrypsin (Bos taurus, UniProt P00766).
T1 construct: purchased Sigma C6423
The experiment in a line: Guanylin degradation assay (chymotrypsin digestion) read out in the T84 cGMP assay. The format is biochemical, bovine. Conditions: T84 cells, FIG. 1. The procedure: Since guanylin is susceptible to digestion by chymotrypsin, chymotrypsin activity can be assayed based on guanylin cleavage. […] From this stock, six (6) 500 μl aliquots were prepared in 2 ml Eppendorf tubes and labeled “Control”, “T0”, “T15”, “T30”, “T60”, and “T180”, with “T_” representing timepoints, in minutes. 5 μl of a 10 mM chymostatin (Sigma, C7268) stock (5 mg of chymostatin resuspended in 824 μl of DMSO) was added to the “Control” samples and all samples were incubated for 5 minutes at 30° C. Chymostatin inhibits chymotrypsin activity and this sample served as a negative control. Next, 20 μl of a chymotrypsin (Sigma, C6423) enzyme solution (0.01 mg/ml bovine chymotrypsin enzyme in 1 mM HCl, 2 mM Calcium Chloride) were added to the samples and mixed by inversion. Samples are incubated at 30° C. […] Determination of sensitivity to digestion by chymotrypsin was determined by LCMS analysis and by in vitro activity in the T84 cGMP assays described below.
The ability of guanylin to activate the intestinal GC-C receptor was assessed in an assay employing the T84 human colon carcinoma cell line (American Type Culture Collection (Bethesda, Md.). For the assays cells were grown to confluency in 24-well culture plates with a 1:1 mixture of Ham's F12 medium and Dulbecco's modified Eagle's medium (DMEM), supplemented with 5% fetal calf serum and were used at between passages 54 and 60. […]

Series [2] relates to guanylin-induced intestinal fluid secretion. Conditions: suckling mouse model; chymostatin given with guanylin; cited from earlier work.
The test system of series [3] is chymotrypsin. As to conditions: cited from earlier work.
In a further series the test system is human HT-29/B6 cells. As to conditions: cited from earlier work.

Regarding `CC(C)C[C@H](NC(=O)[C@@H](NC(=O)N[C@@H](Cc1ccccc1)C(=O)O)C1CCNC(=N)N1)C(=O)N[C@H](C=O)Cc1ccccc1` (stereo partly shown) [chymostatin], the “guanylin stimulated cGMP activity with chymotrypsin inhibitor present” value on chymotrypsin [1] (chymostatin added before chymotrypsin digestion of guanylin) was “retained”. For the same compound, the “guanylin-induced intestinal fluid secretion” value in series [2] is “required in order to observe guanylin-induced intestinal fluid secretion”. For the same compound, in the series on chymotrypsin [3], the “chymotrypsin-mediated inactivation of guanylin” value is “can be prevented”. In the case of `Cc1c(O)cccc1C(=O)N[C@@H](CSc1ccccc1)[C@H](O)CN1C[C@H]2CCCC[C@H]2C[C@H]1C(=O)NC(C)(C)C` [nelfinavir, Nelfinavir], the “effect on the epithelial barrier” value in the series with human HT-29/B6 cells is “impair the epithelial barrier”. As for `CC(C)c1nc(CN(C)C(=O)N[C@H](C(=O)N[C@@H](Cc2ccccc2)C[C@H](O)[C@H](Cc2ccccc2)NC(=O)OCc2cncs2)C(C)C)cs1` [ritonavir], the “effect on the epithelial barrier” value in the series on human HT-29/B6 cells is given as “impair the epithelial barrier”. For the compound `CC(C)(C)NC(=O)[C@@H]1C[C@@H]2CCCC[C@@H]2CN1C[C@@H](O)[C@H](Cc1ccccc1)NC(=O)[C@H](CC(N)=O)NC(=O)c1ccc2ccccc2n1` [saquinavir, Saquinavir], the “effect on the epithelial barrier” value in the series on human HT-29/B6 cells is “impair the epithelial barrier”. For “guanylin: intestinal peptide of 15 amino acids, agonist of the guanylate cyclase (GC-C) receptor; Sigma G-116 (PGTCEICAYAACTGC; ends and bridges not checked; cysteine pairing not given here; UniProt Q02747 101-115, looked up)”, in the series with chymotrypsin [1] (guanylin digested with chymotrypsin at 30° C., timepoints 0-180 min, no chymostatin), the “guanylin stimulated cGMP activity” value is given as “decreases over time”.

The values are drawn from patent US20080025966A1, “Methods And Compositions For The Treatment Of Gastrointestinal disorders” (priority 2004, published 2008).
